Source: PMC5423977, “Safety, pharmacokinetics, and pharmacodynamics of BMS-986142, a novel reversible BTK inhibitor, in healthy participants” (European Journal of Clinical Pharmacology, 2017)
Where “and” joins values, the source holds several entries; their conditions need not be identical. Equal values may be shown once. Read-outs that look alike come from different tables or passages of the source.

Experiments:
[1] = Plasma pharmacokinetics of BMS-986142, MAD; format: in vivo, human; settings: for AI_AUC geometric mean (%CV): MAD; for AI_AUC geometric mean (%CV) / AUC / Cmax / concentration at 14 day / Tmax / half-life: n = 6; for AUC / Cmax / concentration at 14 day / Tmax / half-life: human, plasma, oral; for AUC: read-out: AUC(TAU) geometric mean (%CV); for Cmax: read-out: Cmax geometric mean (%CV); for concentration at 14 day: read-out: Cmin geometric mean (%CV); for Tmax: read-out: Tmax median (min, max); for half-life: read-out: T1/2 mean (SD) (converted)
Experimental: Eligible participants were confined to the clinical facility (WCCT Global, LLC, Cypress, CA) the day before dosing (day −1) and randomized to receive SAD or MAD treatment under fasting conditions for 10 h. In the SAD group, eight healthy non-Japanese participants were assigned to each of up to six sequential dose panels (single oral doses of 5, 15, 50, 100, 300, and 900 mg BMS-986142) or placebo. Within each dose panel, participants were randomized in a 3:1 ratio to receive BMS-986142 (n = 6) or placebo (n = 2). In the MAD group, eight healthy non-Japanese participants were assigned to each of four sequential dose panels (daily oral doses of 25, 75, 200, and 350 mg BMS-986142) or placebo. Within each dose panel, participants were randomized in a 3:1 ratio to receive once-daily (QD) doses of BMS-986142 or placebo from day 1 to day 14 (Online Resource 1). Escalation to the next dose level in SAD and MAD was conducted after safety assessment had been completed and the treatment was considered safe and well tolerated. Additionally, dose levels in MAD were selected not to exceed the steady-state exposure of BMS-986142 (AUC: 22,920 ng h/mL) at NOAEL in rats obtained from a 1-month GLP toxicology study.
Blood samples for the measurement of BMS-986142 were collected up to 168 h after dosing of BMS-986142 on day 1 for participants in SAD. In MAD, blood samples were collected up to 24 h on day 1 and up to 120 h on day 14 (the last day of treatment). Blood samples for the measurement of MTX were collected up to 48 h after dosing of MTX on days 1 and 8.
Plasma samples were analyzed for BMS-986142 levels with a validated method using liquid chromatography tandem mass spectrometry (LC-MS/MS) detection. The analyte was extracted from 50 μL of plasma using a liquid–liquid extraction method. Methyl tert-butyl ether was used as the extraction solvent. The lower limit of quantification (LLOQ) was 1.00 ng/mL in plasma. Plasma samples were analyzed for methotrexate levels using LC-MS/MS detection. Analytes were isolated from 50 μL plasma through solid phase extraction using Waters Oasis MAX, 10-mg, 96-well SPE plates. The final extract was analyzed using LC-MS/MS detection. LLOQ was 1.00 ng/mL in plasma. Detailed methodology quantitating the concentration level of BMS-986142 and MTX is provided in Online Resource 10.
Individual subject pharmacokinetic parameters for BMS-986142 and MTX were derived by a non-compartmental method using validated PK software (WinNonLin version 6.3; Pharsight Corporation, Mountain View, CA, USA). The following PK parameters for BMS-986142 and MTX were derived from plasma concentration versus time data: maximum observed plasma concentration (Cmax); minimum observed plasma concentration (Cmin); time to maximum observed plasma concentration (Tmax); area under the plasma concentration-time curve from time zero to the time of the last quantifiable concentration (AUC(0-T)), from time zero extrapolated to infinite time (AUC(inf)), and in one dosing interval (AUC(TAU)); terminal plasma half-life (T1/2); and AUC accumulation index (AI_AUC). AI_AUC was calculated to divide AUC(TAU) on day 14 by AUC(TAU) on day 1.
Summary statistics were tabulated for all PK parameters by treatment and study days. Geometric mean (Gmean) and coefficient of variation (CV) are presented for Cmax, AUC(0-T), AUC(inf), AI_AUC, Cmin, and AUC(TAU); arithmetic mean and standard deviation (SD) are presented for T1/2; and median and range are presented for Tmax. Dose proportionality was assessed using the previously described power model. Briefly, the simple linear regression was applied to the natural log of the PK parameters on the natural log of dose using the following equation (Eq. 1).1 ElogPKParameterDose=α+β∗logDose.
A slope (β) equal to 1 would indicate perfect dose proportionality. For each PK parameter (Cmax, AUC(0-T), AUC(TAU), and AUC(inf)), point estimates and 90% CI of the slopes were calculated.

[2] = test system: collagen-induced arthritis model; settings: combined with standard of care agents (e.g., MTX); cited from earlier work
[3] = test system: CD69 expression on B cells; experiment: Ex vivo anti-IgD-dextran induced CD69 expression on B cells in whole blood; format: cell-based, human
Experimental: To assess the functional effect of BMS-986142 on a relevant pathway in the targeted cells, whole blood was stimulated ex vivo with anti-IgD-dextran to activate signal transduction through the B cell antigen receptor. B cells, identified by CD20, were assessed for expression of CD69. Blood was incubated without addition of anti-IgD-dextran to serve as a negative control. Samples were incubated for 24 h at 37 °C, and then fixed and stained for CD20 and CD69. CD69 expression was quantified by standardized flow cytometry. Fluorescence intensity was measured and reported in units of mean equivalents of soluble fluorescein (MESF). Background CD69 level was measured from samples without the addition of anti-IgD-dextran and was subtracted from the stimulated value. The anti-IgD specific CD69 induction was used for analysis. The result for each sample was expressed as a percentage inhibition relative to the pre-dose sample.
CD69 inhibition by BMS-986142 was tabulated by treatment and time, and corresponding changes from baseline were calculated and summarized. The inhibition of B cell receptor-mediated CD69 expression by BMS-986142 was descriptively summarized by treatment and study days. An exposure-response analysis was applied to characterize the relationship between BMS-986142 concentration and CD69 inhibition using a Bayesian Emax model. […]

[4] = both sexes, MAD day 14, 25 mg QD

Cc1c(-c2c(F)cc(C(N)=O)c3[nH]c4c(c23)CC[C@H](C(C)(C)O)C4)cccc1-n1c(=O)c2cccc(F)c2n(C)c1=O [BMS-986142, 6-fluoro-5-(R)-(3-(S)-(8-fluoro-1-methyl-2,4-dioxo-1,2-dihydroquinazolin-3(4H)-yl)-2-methylphenyl)-2-(S)-(2-hydroxypropan-2-yl)-2,3,4,9-tetrahydro-1H-carbazole-8-carboxamide]
Accumulation (accumulation index for AUC) ([1]; MAD 25-350 mg QD): minimal to modest accumulation | AI_AUC geometric mean (%CV) ([1]; AUC(TAU) day 14 / day 1, 25 mg QD): 1.57 (22) | AI_AUC geometric mean (%CV) ([1]; AUC(TAU) day 14 / day 1, 75 mg QD): 1.23 (31) | AI_AUC geometric mean (%CV) ([1]; AUC(TAU) day 14 / day 1, 200 mg QD): 1.23 (40) | AI_AUC geometric mean (%CV) ([1]; AUC(TAU) day 14 / day 1, 350 mg QD): 0.984 (32) | AUC [1, 4]: 539 ng·h/mL | Cmax [1, 4]: 56 ng/mL | concentration at 14 day [1, 4]: 7.85 ng/mL | Tmax [1, 4]: 2 h | half-life ([1]; MAD day 14, 25 mg QD): 10.9 h | AUC ([1]; MAD day 14, 75 mg QD): 2470 ng·h/mL | Cmax ([1]; MAD day 14, 75 mg QD): 281 ng/mL | concentration at 14 day ([1]; MAD day 14, 75 mg QD): 27.9 ng/mL | half-life ([1]; MAD day 14, 75 mg QD): 10.7 h | Tmax ([1]; MAD day 14, 75 mg QD): 2 h | AUC ([1]; MAD day 14, 200 mg QD): 5530 ng·h/mL | Cmax ([1]; MAD day 14, 200 mg QD): 592 ng/mL | concentration at 14 day ([1]; MAD day 14, 200 mg QD): 67.6 ng/mL | half-life ([1]; MAD day 14, 200 mg QD): 11 h | Tmax ([1]; MAD day 14, 200 mg QD): 2 h | AUC ([1]; MAD day 14, 350 mg QD): 10700 ng·h/mL | Cmax ([1]; MAD day 14, 350 mg QD): 1020 ng/mL | concentration at 14 day ([1]; MAD day 14, 350 mg QD): 166 ng/mL | half-life ([1]; MAD day 14, 350 mg QD): 10.2 h | Tmax ([1]; MAD day 14, 350 mg QD): 1.5 h | Efficacy against disease endpoints in combination [2]: Added benefit against disease endpoints | IC50 ([3]; Homo sapiens, B-cell, plasma concentration, Bayesian Emax model, SAD and MAD data, read-out: IC50, concentration to inhibit 50% of CD69 expression): 145 nM and 0.083 µg/mL | Mean maximal inhibition of CD69 expression ([3]; dose levels greater than 100 mg): ~100%
